# Experimental data published in ChEMBL document CHEMBL5053551, “Structure-Based Design of Dual Partial Peroxisome Proliferator-Activated Receptor γ Agonists/Soluble Epoxide Hydrolase Inhibitors” (J Med Chem, 2021).
# pEC50: −log10 of the molar value. The source made the active and inactive calls. The rule behind the calls is not given here.
# What was measured:
# HepG2 [1] = assay: Cytotoxicity against human HepG2 cells assessed as reduction in ATP level upto 10 uM after 72 hrs by CellTiter-glo luminescence assay; assay type: cell-based; conditions: hepg2, 72 h
# [2] = target: T1, Peroxisome proliferator-activated receptor gamma (Homo sapiens, UniProt P37231); assay: Partial agonist activity at GAL4-tagged human PPARgamma LBD expressed in HEK293T cells incubated for 12 to 14 hrs by dual-Glo luciferase assay; assay type: cell-based
# T1 sequence (P37231 whole entry): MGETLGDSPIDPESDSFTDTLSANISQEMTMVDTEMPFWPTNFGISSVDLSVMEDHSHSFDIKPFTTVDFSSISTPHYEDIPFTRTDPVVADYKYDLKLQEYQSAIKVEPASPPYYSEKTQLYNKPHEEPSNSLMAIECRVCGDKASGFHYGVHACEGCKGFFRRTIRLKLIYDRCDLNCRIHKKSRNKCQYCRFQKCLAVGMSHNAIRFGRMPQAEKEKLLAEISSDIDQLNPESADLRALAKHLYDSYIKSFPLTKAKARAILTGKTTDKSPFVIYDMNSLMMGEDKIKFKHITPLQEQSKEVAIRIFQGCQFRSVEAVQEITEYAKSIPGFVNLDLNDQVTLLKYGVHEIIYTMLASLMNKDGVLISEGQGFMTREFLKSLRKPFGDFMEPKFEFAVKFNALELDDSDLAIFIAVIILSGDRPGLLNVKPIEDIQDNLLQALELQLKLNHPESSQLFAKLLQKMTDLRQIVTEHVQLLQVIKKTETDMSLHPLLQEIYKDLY
# [3] = Stability of compound in human liver microsomes assessed as half life at 10 uM preincubated for 5 mins in presence of NADPH regenerating system followed by microsomal addition and measured upto 60 mins by HPLC analysis; assay type: ADME, Microsome; conditions: time 65 min
# [4] = Stability of compound in BALB/c mouse liver microsomes assessed as half life at 10 uM preincubated for 5 mins in presence of NADPH regenerating system followed by microsomal addition and measured upto 60 mins by HPLC analysis; assay type: ADME, Microsome; conditions: time 65 min
# [5] = target: T2, Vitamin D3 receptor (Homo sapiens) (UniProt P11473); assay: Partial agonist activity at GAL4-tagged human VDR LBD expressed in HEK293T cells at 3 uM incubated for 12 to 14 hrs by dual-Glo luciferase assay; assay type: cell-based; conditions: filed as partial agonist, time 12-14 hrs
# T2 sequence (whole entry): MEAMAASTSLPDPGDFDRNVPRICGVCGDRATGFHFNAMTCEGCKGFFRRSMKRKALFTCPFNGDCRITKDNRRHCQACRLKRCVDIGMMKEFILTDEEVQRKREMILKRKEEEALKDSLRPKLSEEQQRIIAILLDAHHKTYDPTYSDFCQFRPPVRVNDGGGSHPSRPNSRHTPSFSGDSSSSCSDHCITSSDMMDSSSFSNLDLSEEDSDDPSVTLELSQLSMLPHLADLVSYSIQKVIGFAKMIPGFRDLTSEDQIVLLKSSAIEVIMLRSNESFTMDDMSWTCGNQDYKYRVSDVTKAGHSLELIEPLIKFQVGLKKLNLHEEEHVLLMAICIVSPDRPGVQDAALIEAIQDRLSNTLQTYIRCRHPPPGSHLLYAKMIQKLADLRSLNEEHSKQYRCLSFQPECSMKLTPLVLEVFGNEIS
# HepG2 [6] = assay: Cytotoxicity against human HepG2 cells assessed as reduction in ATP level at above 25 to 50 uM after 72 hrs by CellTiter-glo luminescence assay; assay type: cell-based; conditions: hepg2, 72 h, dose 25-50 µM
# [7] = target: T3, Nuclear receptor subfamily 1 group I member 3 (Homo sapiens, UniProt Q14994); assay: Partial agonist activity at GAL4-tagged human CAR LBD expressed in HEK293T cells at 3 uM incubated for 12 to 14 hrs by dual-Glo luciferase assay; assay type: cell-based; conditions: time 12-14 hrs
# T3 sequence (Q14994 whole entry): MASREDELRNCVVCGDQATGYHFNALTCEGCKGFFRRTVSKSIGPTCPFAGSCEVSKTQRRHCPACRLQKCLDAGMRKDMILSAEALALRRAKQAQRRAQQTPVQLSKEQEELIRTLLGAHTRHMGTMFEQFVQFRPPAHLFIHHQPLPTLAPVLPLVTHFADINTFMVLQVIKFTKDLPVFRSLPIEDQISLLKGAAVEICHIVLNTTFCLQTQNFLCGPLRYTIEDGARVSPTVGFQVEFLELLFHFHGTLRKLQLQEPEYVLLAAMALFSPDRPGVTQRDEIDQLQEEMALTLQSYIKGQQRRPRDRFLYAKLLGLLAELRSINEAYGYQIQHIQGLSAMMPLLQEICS
# 3T3-L1 = assay: Induction of cell differentiation in mouse 3T3-L1 cells assessed as increase in differentiation cocktail-induced lipid accumulation at 0.3 to 3 uM incubated for 2 days by Oil-Red O staining based assay; assay type: functional; conditions: dose 0.3-3 µM, time 2.0 day
# [8] = Stability of compound in Sprague-Dawley rat liver microsomes assessed as half life at 10 uM preincubated for 5 mins in presence of NADPH regenerating system followed by microsomal addition and measured upto 60 mins by HPLC analysis; assay type: ADME, Microsome; conditions: time 65 min
# [9] = target: T4, Peroxisome proliferator-activated receptor gamma (Homo sapiens) (UniProt P37231); assay: Partial agonist activity at recombinant sGSF-PPARgamma (unknown origin) assessed as CBP-1 recruitment by HT-FRET assay relative to control
# T4 sequence (whole entry): T1 sequence (P37231 whole entry)
# [10] = target: T5, Peroxisome proliferator-activated receptor delta (Homo sapiens) (UniProt Q03181); assay: Partial agonist activity at GAL4-tagged human PPARdelta LBD expressed in HEK293T cells at 3 uM incubated for 12 to 14 hrs by dual-Glo luciferase assay; assay type: cell-based; conditions: time 12-14 hrs
# T5 sequence (whole entry): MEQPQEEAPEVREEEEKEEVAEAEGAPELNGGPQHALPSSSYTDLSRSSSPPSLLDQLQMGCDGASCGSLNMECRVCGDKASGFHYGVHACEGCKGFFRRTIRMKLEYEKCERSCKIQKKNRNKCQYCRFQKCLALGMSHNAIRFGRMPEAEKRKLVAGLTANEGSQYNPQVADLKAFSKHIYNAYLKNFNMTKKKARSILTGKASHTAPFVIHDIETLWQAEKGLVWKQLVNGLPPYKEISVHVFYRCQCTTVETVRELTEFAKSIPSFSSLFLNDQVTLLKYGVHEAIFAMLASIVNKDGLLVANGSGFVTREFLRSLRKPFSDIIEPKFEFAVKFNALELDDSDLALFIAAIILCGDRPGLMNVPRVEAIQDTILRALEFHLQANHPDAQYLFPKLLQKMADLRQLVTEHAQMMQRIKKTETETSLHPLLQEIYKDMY
pEC50 [2],half-life at 10 µM [3] [h],half-life at 10 µM [4] [h],Activity [5],Activity [7],half-life at 10 µM [8] [h],Emax [9] [%],Activity [10],Compound,Activity (HepG2 [1]),Activity (HepG2 [6]),Activity (3T3-L1)
6.66,1.38,0.983,Active,Active,0.95,28,inactive,O=C(NCc1ccc(NS(=O)(=O)C2CC2)cc1C(F)(F)F)c1ccc2c(ccn2Cc2cccc(F)c2)c1,Non-Toxic,Toxic,Active
6.72,1.68,1.02,Active,Active,0.867,19,inactive,CS(=O)(=O)Nc1ccc(CNC(=O)c2ccc3c(ccn3Cc3cccc(F)c3)c2)c(C(F)(F)F)c1,Non-Toxic,Toxic,Active
